PubChem BioAssay AID1645863 (Buhrlage Lab, Dana-Farber Cancer Institute and Novartis …, 2021)
Activity calls are given as the source filed them. No rule for the calls is given here.

Target: Ubiquitin carboxyl-terminal hydrolase 10 (Homo sapiens) (UniProt Q14694)
Experiment: primary hit verification, biochemical, ubiquitin-specific protease 10 deubiquitylase inhibitors, concentration-effect titration (AID 1645863);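 also: potency values describe inhibition of USP10 cleavage of a fluorogenic ubiquitin substrate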
Conditions: USP10 deubiquitinase enzymatic assay

Ubiquitin carboxyl-terminal hydrolase 10 (Homo sapiens), sequence (Q14694 whole entry, looked up): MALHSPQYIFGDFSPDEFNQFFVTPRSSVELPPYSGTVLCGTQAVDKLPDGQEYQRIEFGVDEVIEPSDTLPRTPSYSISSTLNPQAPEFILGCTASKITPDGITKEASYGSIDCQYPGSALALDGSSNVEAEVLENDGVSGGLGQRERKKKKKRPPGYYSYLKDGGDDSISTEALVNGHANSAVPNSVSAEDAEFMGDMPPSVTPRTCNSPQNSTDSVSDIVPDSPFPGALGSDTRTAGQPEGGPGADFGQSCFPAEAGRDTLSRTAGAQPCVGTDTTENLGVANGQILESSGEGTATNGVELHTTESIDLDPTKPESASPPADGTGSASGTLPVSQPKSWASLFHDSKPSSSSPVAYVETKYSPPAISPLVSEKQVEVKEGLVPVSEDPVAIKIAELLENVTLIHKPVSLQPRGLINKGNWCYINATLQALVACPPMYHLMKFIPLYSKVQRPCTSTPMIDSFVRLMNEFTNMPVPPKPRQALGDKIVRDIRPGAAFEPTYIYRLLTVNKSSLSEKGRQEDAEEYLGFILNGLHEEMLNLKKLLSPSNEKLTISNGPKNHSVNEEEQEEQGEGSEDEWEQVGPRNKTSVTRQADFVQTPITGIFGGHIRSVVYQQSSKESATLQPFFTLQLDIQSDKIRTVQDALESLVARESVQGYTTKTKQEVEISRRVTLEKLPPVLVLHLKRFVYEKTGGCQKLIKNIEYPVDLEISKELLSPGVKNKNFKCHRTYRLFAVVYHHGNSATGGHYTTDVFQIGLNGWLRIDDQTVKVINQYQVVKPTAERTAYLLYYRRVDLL

Row | SMILES | IC50
1 | Cc1ccc(NC(=O)Cc2nnc3cc(-c4nc(C)no4)ccn23)cc1 | 14.3 µM
2 | Cc1ccc(Nc2nc(O)c(CC(=O)Nc3ccc(C)cc3C)s2)cc1 | 14.6 µM
3 | CCOc1ccc2cc3c(nc2c1)OC(=O)N(Cc1ccc(OC)cc1)C3 | 5.74 µM
4 | O=C(/C=C/c1cccc([N+](=O)[O-])c1)N1CCc2ccccc21 | > 40 µM (inactive)
5 | O=C(Nc1ccc(F)cc1)Nc1ccccc1OCc1cc(=O)n2ccccc2n1 | 26.3 µM
6 | O=C(CC1C(=O)Nc2nc(-c3ccccc3)nn21)Nc1cccc2ccccc12 (stereo not given) | 13.3 µM
7 | COc1ccc2nc(N3CC(C(=O)Nc4ccc(C(N)=O)cc4)C3)sc2c1 | > 40 µM (inactive)
8 | COc1ccc(CCC(=O)Nc2nnc(C3CC(=O)N(c4ccc(C)cc4)C3)s2)cc1 (stereo not given) | 13.6 µM
9 | O=C(O)C1C(C(=O)Nc2ccccc2)C2(c3ccccc3)C(=O)C1(c1ccccc1)C(c1ccccc1)=C2c1ccccc1 (stereo not given) | 4.25 µM
10 | N#Cc1cccc(NC(=O)Cn2cccc2-c2nc(-c3ccccc3)no2)c1 | > 40 µM (inactive)
11 | CC(C)=CCc1c2c(c3occ(-c4ccc(O)cc4)c(=O)c3c1O)C=CC(C)(C)O2 | > 40 µM (inactive)
12 | COc1ccc(OC)c2c(C)cc(N3CC(C)CC(C)C3)nc12 (stereo not given) | > 40 µM (inactive)
13 | CNc1ncc(C(=O)N2CCOC(C(=O)N3CCCCCC3)C2)cn1 (stereo not given) | > 40 µM (inactive)
14 | O=c1[nH]c(C2CCN(S(=O)(=O)c3ccc(S(=O)(=O)NC4CC4)cc3)CC2)nc2c1nnn2Cc1c(Cl)cccc1Cl | 27.5 µM
15 | COC(=O)c1ccc2c(=O)n(-c3ccc(C)c(F)c3)c(N3CCC(C(N)=O)CC3)nc2c1 | > 40 µM (inactive)
16 | COc1ccc(-c2cc3nc([C@H](C)NC(=O)CC4CCCC4)nn3cn2)cc1 | > 40 µM (inactive)
17 | CO/C=C/C(=O)c1cc2cnc3c(=N)cc(NC(C)=O)c([nH]1)c23 | inactive
18 | Cc1nn(-c2ccccc2)c2c1N=C1C(Cl)=CC(Cl)=CN1C21C(=O)Nc2ccccc21 (stereo not given) | > 40 µM (inactive)
19 | C=C1C=C(CCC(=O)O)C(=O)OC1/C=C/C=C/C (stereo not given) | 3.91 µM
20 | O=C(Nc1nc2c(ccc3ccccc32)s1)c1cccc(Br)c1 | > 40 µM (inactive)
21 | CCc1[nH]c(=O)cc2cc(OC)c(OC)cc12 | 2.97 µM
22 | Cc1cccc(C)c1NC(=O)Cn1c(=O)n(CCCCC(=O)NCc2ccc3c(c2)OCO3)c(=O)c2ccccc21 | 22.3 µM
23 | CCc1nnc(C(=O)Nc2ccc(C(=O)NCc3ccc(OC(C)C)cc3)cc2)s1 | > 40 µM (inactive)
24 | CCc1ccc(S(=O)(=O)c2cn(CC(=O)Nc3ccccc3)c3ccccc3c2=O)cc1 | > 40 µM (inactive)

Row | SMILES | IC50
25 | O=C(c1cnccn1)N1CC[C@@H]2CNS(=O)(=O)[C@@H]2CC1 | > 40 µM (inactive)
26 | Cc1ccc(CS(=O)(=O)c2cn(CC(=O)NCCc3ccccc3)c3ccccc23)cc1 | > 40 µM (inactive)
27 | CC(C)=CCOC(C)(C)[C@H]1OC2CC[C@@]3(C)C(CCC4Cc5c([nH]c6ccccc56)[C@@]43C)C23OC3[C@@H]1O (stereo not given in full) | 10.6 µM
28 | O=[N+]([O-])c1ccc2c(c1)nc1n2CCN(Cc2ccco2)C1 | > 40 µM (inactive)
29 | Cc1cccc(NC(=O)Nc2nnc(CC(=O)NCc3ccccc3)s2)c1 | 17.4 µM
30 | Cc1ccc(S(=O)(=O)N2CCC3(CC2)OC(=O)Nc2ccccc23)cc1 | > 40 µM (inactive)
31 | O=C(Nc1ccccc1)[C@@H]1[C@@H]2C(=O)N(c3ccc([N+](=O)[O-])cc3)C(=O)[C@@H]2[C@H]2c3ccccc3C=CN12 | > 40 µM (inactive)
32 | CNc1nc2c(c(=O)n1C)CN(C(=O)Nc1cccc3ccccc13)CC2 | > 40 µM (inactive)
33 | COc1ccc(OCCn2c(C3CC(=O)N(c4cccc(C)c4)C3)nc3ccccc32)cc1 (stereo not given) | 15.2 µM
34 | O=C(Nc1ccccc1-c1nc(-c2ccccn2)no1)c1cc(Cl)ccc1Cl | > 40 µM (inactive)
35 | CN(C)c1ccc(CNC(=O)c2nnc(C(=O)Nc3ccccc3)s2)cc1 | > 40 µM (inactive)
36 | COc1ccc(Cl)cc1NC(=O)CSc1ncnc2nc[nH]c12 | 37.9 µM
37 | Cc1cc(OCC(=O)Nc2ccccc2C(=O)Nc2ccccc2)ccc1Cl | 24.6 µM
38 | NC(=O)c1nc(-c2cccnc2)nc2c1[nH]c(=O)n2-c1ccc2c(c1)OCO2 | > 40 µM (inactive)
39 | COc1cccc(CNC(=O)c2nnn(CC(=O)Nc3cc(C)ccc3C)c2N)c1 | 29.9 µM
40 | Cc1cccc(NC(=O)CSc2nc3c(cc2C#N)C(=O)CCC3)c1 | 26.4 µM
41 | Cc1noc(C)c1COc1cccc(C(=O)Nc2cc(Cl)ccc2-n2cncn2)c1 | > 40 µM (inactive)
42 | O=C(CCn1c(=O)c2ccccc2n(Cc2ccc(F)cc2Cl)c1=O)NCc1ccco1 | 27.6 µM
43 | O=C(Cn1c(=O)c2ccccc2c2ccccc21)Nc1ccc2c(c1)OCO2 | 34.9 µM
44 | O=C(CCSc1ccc(Cl)cc1)c1cccs1 | > 40 µM (inactive)
45 | Cc1cccc(NC(=O)Nc2ccccc2OCc2cc(=O)n3cccc(C)c3n2)c1 | 27.1 µM
46 | COc1ccccc1NC(=O)CSC1=NC2(CCCCC2)Nc2ccccc21 | > 40 µM (inactive)
47 | Cc1cccc(C)c1NC(=O)COc1ccccc1-c1nnc(-c2ccccc2)o1 | > 40 µM (inactive)
48 | O=C(Nc1cccnc1)C1c2ccccc2C(=O)N(c2ccccc2)C12CCCCC2 (stereo not given) | > 40 µM (inactive)

Row | SMILES | IC50
49 | Cc1ccccc1-n1ccc2nc(N3CCCC3)ncc2c1=O | > 40 µM (inactive)
50 | COc1c(O)cc(CC(=O)O)c(C(C)=O)c1O | 15.3 µM
51 | CS(=O)(=O)c1cccc(C(=O)Nc2sc3c(c2C(N)=O)CCCC3)c1 | > 40 µM (inactive)
52 | COc1cc2c(=O)n(CC3CCCO3)c(=O)n(CC(=O)c3ccc4c(c3)OCO4)c2cc1OC (stereo not given) | 37.4 µM
53 | Cn1c(=O)n(CCc2ccccc2)c(=O)c2c1nc1n2CCN1Cc1ccccc1 | > 40 µM (inactive)
54 | CCc1ccc([C@@H]2c3c(C)nn(C)c3NC(=O)[C@H]2NC(=O)c2ccc(OC)c(OC)c2)cc1 | > 40 µM (inactive)
55 | N=C1/C(=C/c2cn(Cc3ccccc3F)c3ccccc23)C(=O)N=C2SC(C(F)(F)F)=NN12 | inactive
56 | CCNS(=O)(=O)c1ccc(-c2ccc(-n3cnnn3)cc2)cc1 | > 40 µM (inactive)
57 | COc1cn(-c2ccc(F)cc2)nc1C(=O)Nc1ccc(Cl)cc1Cl | 16.2 µM
58 | Cc1ccc2nc(CNc3ccc(F)cc3C)cc(=O)n2c1 | > 40 µM (inactive)
59 | O=C(Nc1ccncc1)c1cn(Cc2ccccc2)cc2c(=O)n(-c3ccccc3)nc1-2 | > 40 µM (inactive)
60 | CCOC(=O)c1cc2c(ccn2C)n1CC(=O)NC1CC1 | > 40 µM (inactive)
61 | COc1ccc(C2NC(=O)NC(C)=C2C(=O)OCC2CCCCC2)cc1OC (stereo not given) | > 40 µM (inactive)
62 | CCN(c1ccc(NC(=O)COC(=O)c2cccnc2Nc2cccc(C(F)(F)F)c2)cc1)C(C)C | > 40 µM (inactive)
63 | COc1ccc(C(=O)C(C)OC(=O)c2cccc(S(=O)(=O)Nc3cc([N+](=O)[O-])ccc3OC)c2)c(OC)c1 (stereo not given) | > 40 µM (inactive)
64 | Cc1c(-c2nsc(NC(=O)c3ccc(Cl)cc3)n2)nnn1-c1ccccc1F | 15.7 µM
65 | Cc1ccc(Nc2nc(O)c(CC(=O)Nc3ccccc3C)s2)cc1C | > 40 µM (inactive)
66 | Cc1ccc(-c2nc(NC(=O)COc3ccc(Cl)cc3)no2)cc1 | 13.5 µM
67 | N#Cc1cn2c(nc1-c1ccc(Cl)cc1)nc1ccccc12 | 19.5 µM
68 | COc1cc(-c2ccccc2)c(O)c(O)c1-c1ccccc1 | 14 µM
69 | O=C(O)c1ccccc1C(=O)Nc1ccc(SC(C(=O)Nc2cccc(Cl)c2)c2ccccc2)cc1 (stereo not given) | 14.2 µM
70 | Cc1cc(C(=O)CSc2nc3ccccc3[nH]2)c(C)n1Cc1ccco1 | > 40 µM (inactive)
71 | COc1cccc(-n2cnc3cc(C(=O)NCCc4ccccc4)ccc3c2=O)c1 | 19.8 µM
72 | COc1ccc(-c2nc(Cn3nnc(C(=O)Nc4ccc(C)c(C)c4)c3N)c(C)o2)cc1 | 29.1 µM

Row | SMILES | IC50
73 | COc1ccc(-c2cc3n(c(=N)c2C#N)CCc2cc4c(cc2-3)OCO4)cc1O | > 40 µM (inactive)
74 | O=c1[nH]c(C2CCN(S(=O)(=O)c3ccc(S(=O)(=O)NC4CCCCC4)cc3)CC2)nc2c1nnn2Cc1c(F)cccc1Cl | 16.4 µM
75 | CC(C)c1ccc(NC(=O)COC(=O)c2ccc(NS(=O)(=O)c3ccc4c(c3)OCCO4)cc2)cc1 | 22.3 µM
76 | CCc1ccc(OCCn2c(CCNC(=O)C3CCCCC3)nc3ccccc32)cc1 | > 40 µM (inactive)
77 | O=C(Nc1ccc2snnc2c1)Nc1ccc(F)cc1F | > 40 µM (inactive)
78 | O=c1[nH]c(C2CCN(S(=O)(=O)c3ccc(S(=O)(=O)NC4CCCCC4)cc3)CC2)nc2c1nnn2Cc1ccc(F)cc1 | 21.9 µM
79 | CCCCC/C=C/C=C/C(=O)OC1C(O)CC(c2ccc3c(c2O)C(=O)c2c(O)cc4cc(C)cc(O)c4c2C3=O)OC1C (stereo not given) | > 40 µM (inactive)
80 | Cc1ccc2c(c1)N(C)C(=O)c1cc(NC(=O)c3ccc(F)cc3)ccc1O2 | 12.8 µM
81 | Cc1cc(C)c(O)c(-c2cc(C(=O)Nc3ccccc3Cl)[nH]n2)c1 | > 40 µM (inactive)
82 | Cn1cc(-c2nc(C(=O)Nc3ccc(C#N)cc3)cs2)c2cccnc21 | > 40 µM (inactive)
83 | CC(Nc1nnc(Cc2ccccc2)c(=O)[nH]1)c1ccccc1 (stereo not given) | > 40 µM (inactive)
84 | O=C(c1cc(S(=O)(=O)Nc2ccc(Cl)cc2)ccc1Cl)N1CCCc2ccccc21 | > 40 µM (inactive)
85 | Cc1ccc(NC(=O)Nc2nnc(CC(=O)NCc3ccccc3)s2)cc1F | > 40 µM (inactive)
86 | COc1cccc2cc(-c3nnc(SCC(=O)c4ccc(F)cc4)n3C)oc12 | > 40 µM (inactive)
87 | Cc1ccc(Cl)cc1NC(=O)c1cc(-c2ccccn2)n[nH]1 | > 40 µM (inactive)
88 | Cc1ccc2[nH]c(=O)c(-c3nc4ccccn4c3NCc3ccccc3)cc2c1 | 23.7 µM
89 | COc1ccc(C)cc1NC(=O)CN1C(=O)C2CCCC2=Nc2ccccc21 (stereo not given) | > 40 µM (inactive)
90 | CC1CCc2c(sc(NC(=O)c3cccc(S(C)(=O)=O)c3)c2C(N)=O)C1 (stereo not given) | > 40 µM (inactive)
91 | Cc1nc2nc(C(c3ccccc3)c3ccccc3)[nH]n2c(=O)c1Cc1ccccc1 | > 40 µM (inactive)
92 | Cc1cccc(OCC2=NN3C(=N)/C(=C\c4cc(C)n(-c5cccc(F)c5)c4C)C(=O)N=C3S2)c1 | > 40 µM (inactive)
93 | CCOc1ncccc1C(=O)Nc1ccnn1Cc1ccccc1 | > 40 µM (inactive)
94 | CC(=O)c1ccc(N2CCN(S(=O)(=O)c3cc4c(cc3C)NC(=O)CO4)CC2)cc1 | > 40 µM (inactive)
95 | Cc1ccc(C2SCC(=O)Nc3c2c(=O)[nH]n3C2CCCCC2)cc1 (stereo not given) | 28.8 µM
